Measurements as given in patent US20190133128A1, “Fungicidal pyridazinones” (FMC Corporation, priority 2017, published 2019).

Columns and labels:
Assay type in all cases: in vivo
[1] = tested on: Phytophthora infestans; assay: whole plant or invertebrate; conditions: for Test D disease control rating: 250 ppm, tomato seedlings, 100 = 100% disease control, 0 = no control; for pest or weed control at 250 ppm: Phytophthora infestans, in Solanum lycopersicum, read-out: Test D disease control rating
[2] = tested on: Zymoseptoria tritici; assay: Test E: preventive spray on wheat seedlings, wheat leaf blotch, visual disease rating; conditions: 250 ppm, 100 = 100% disease control, 0 = no control; for pest or weed control at 250 ppm: Zymoseptoria tritici
Text: (§1) General protocol for preparing test solutions for Tests AG: the test compounds were first dissolved in acetone in an amount equal to 3% of the final volume and then suspended at the desired concentration (in ppm) in acetone and purified water (50/50 mix by volume) containing the surfactant PEG400 (polyhydric alcohol esters). The resulting test suspensions were then used in Tests AG. Compounds were sprayed at a concentration of 250 ppm or other indicated rate to the point of run-off on the test plants. The test solution was sprayed to the point of run-off on wheat seedlings. […] A dash (-) indicates no test results.

[3] = tested on: Phakopsora pachyrhizi; assay: Test A: preventive spray on soybean seedlings, Asian soybean rust, visual disease rating; conditions: 250 ppm, 100 = 100% disease control, 0 = no control; for pest or weed control at 250 ppm: Phakopsora pachyrhizi
[4] = tested on: Botrytis cinerea; assay: Test C: preventive spray on tomato seedlings, gray mold, visual disease rating; conditions: 250 ppm, 100 = 100% disease control, 0 = no control; for pest or weed control at 250 ppm: Botrytis cinerea
Text: as §1, with “tomato” for “wheat”

[5] = tested on: Erysiphe graminis f. sp. tritici; assay: Test G: preventive spray on wheat seedlings, wheat powdery mildew, visual disease rating; conditions: 250 ppm, 100 = 100% disease control, 0 = no control; for pest or weed control at 250 ppm: Blumeria graminis, 192 h
Text: as §1

[6] = tested on: Puccinia recondita f. sp. tritici; assay: Test F: preventive spray on wheat seedlings, wheat leaf rust, visual disease rating; conditions: 250 ppm, 100 = 100% disease control, 0 = no control; for pest or weed control at 250 ppm: Puccinia recondita
Text: as §1, with “seedlings. The following day the seedlings were inoculated with a spore suspension of Puccinia recondita f. sp. tritici;” for “seedlings.”

[7] = tested on: Plasmopara viticola; assay: Test B: preventive spray on grape seedlings, grape downy mildew, disease rating; conditions: 250 ppm, 100 = 100% disease control, 0 = no control
Text: as §1, with “grape” for “wheat”

Cn1ncc(OC(=O)c2ccccc2)c(C(=O)N(C(=O)c2ccccc2)c2ccc(OC(F)(F)F)cc2)c1=O [Compound 81]
Test D disease control rating [1]: 0% | Test E disease control rating [2]: 67% | Test A disease control rating [3]: 0% | Test C disease control rating [4]: 0% | Test G disease control rating [5]: 0% | Test F disease control rating [6]: 98%

CCCC(=O)Oc1cnn(C)c(=O)c1C(=O)Nc1ccc(OC(F)(F)F)cc1 [Compound 87]
Test B disease control rating [7]: 100% | Test E disease control rating [2]: 100% | Test C disease control rating [4]: 0% | Test G disease control rating [5]: 99% | Test F disease control rating [6]: 100%

Cn1ncc(OS(C)(=O)=O)c(C(=O)Nc2ccc(OC(F)(F)F)cc2)c1=O [Compound 90]
Test D disease control rating [1]: 78% | Test E disease control rating [2]: 100% | Test A disease control rating [3]: 98% | Test C disease control rating [4]: 60% | Test G disease control rating [5]: 0% | Test F disease control rating [6]: 98%

Cn1ncc(O)c(C(=O)Nc2ccc(S(F)(F)(F)(F)F)cc2)c1=O [Compound 91, [4-[[[2,3-Dihydro-5-hydroxy-2-methyl-3-oxo-4-pyridazinyl]carbonyl]amino]phenyl]pentafluorosulfur]
pest or weed control at 250 ppm [1]: 97% | pest or weed control at 250 ppm [2]: 100% | pest or weed control at 250 ppm [3]: 46% | pest or weed control at 250 ppm [4]: 0% | pest or weed control at 250 ppm [5]: 89% | pest or weed control at 250 ppm [6]: 99%

Cn1ncc(OS(C)(=O)=O)c(C(=O)Nc2ccc(C(F)(F)F)cc2)c1=O [Compound 96, 2,3-Dihydro-2-methyl-5-[(methylsulfonyl)oxy]-3-oxo-N-[4-(trifluoromethyl)phenyl]-4-pyridazinecarboxamide]
pest or weed control at 250 ppm [1]: 0% | pest or weed control at 250 ppm [2]: 97% | pest or weed control at 250 ppm [3]: 98% | pest or weed control at 250 ppm [4]: 30% | pest or weed control at 250 ppm [5]: 84% | pest or weed control at 250 ppm [6]: 99%

Cn1ncc(OS(C)(=O)=O)c(C(=O)Nc2ccc(OC(F)F)cc2)c1=O [Compound 97, N-[4-(Difluoromethoxy)phenyl]-2,3-dihydro-2-methyl-5-[(methylsulfonyl)oxy]-3-oxo-4-pyridazinecarboxamide]
pest or weed control at 250 ppm [1]: 95% | pest or weed control at 250 ppm [2]: 100% | pest or weed control at 250 ppm [3]: 95% | pest or weed control at 250 ppm [4]: 40% | pest or weed control at 250 ppm [5]: 91% | pest or weed control at 250 ppm [6]: 99%

Cn1ncc(OS(C)(=O)=O)c(C(=O)Nc2ccc(C#N)cc2)c1=O [Compound 98, N-(4-cyanophenyl)-2,3-dihydro-2-methyl-5-[(methylsulfonyl)oxy]-3-oxo-4-pyridazinecarboxamide]
pest or weed control at 250 ppm [1]: 9% | pest or weed control at 250 ppm [2]: 95% | pest or weed control at 250 ppm [3]: 99% | pest or weed control at 250 ppm [4]: 98% | pest or weed control at 250 ppm [5]: 0% | pest or weed control at 250 ppm [6]: 97%

Cn1ncc(OS(C)(=O)=O)c(C(=O)Nc2ccc(S(F)(F)(F)(F)F)cc2)c1=O [Compound 99, [4-[[[2,3-Dihydro-2-methyl-5-[(methylsulfonyl)oxy]-3-oxo-4-pyridazinyl]carbonyl]amino]phenyl]pentafluorosulfur]
pest or weed control at 250 ppm [1]: 92% | pest or weed control at 250 ppm [2]: 100% | pest or weed control at 250 ppm [3]: 99% | pest or weed control at 250 ppm [4]: 50% | pest or weed control at 250 ppm [5]: 83% | pest or weed control at 250 ppm [6]: 98%

Cn1ncc(OS(C)(=O)=O)c(C(=O)Nc2ccc(OC(F)(F)F)cc2F)c1=O [Compound 100]
Test D disease control rating [1]: 0% | Test E disease control rating [2]: 92% | Test A disease control rating [3]: 94% | Test C disease control rating [4]: 98% | Test G disease control rating [5]: 0% | Test F disease control rating [6]: 95%

Cn1ncc(OS(C)(=O)=O)c(C(=O)Nc2ccc(F)cc2)c1=O [Compound 101]
Test D disease control rating [1]: 9% | Test E disease control rating [2]: 78% | Test A disease control rating [3]: 78% | Test C disease control rating [4]: 0% | Test G disease control rating [5]: 0% | Test F disease control rating [6]: 99%

Cn1ncc(OS(C)(=O)=O)c(C(=O)Nc2ccc(C(F)(F)F)cc2F)c1=O [Compound 102]
Test D disease control rating [1]: 26% | Test E disease control rating [2]: 95% | Test A disease control rating [3]: 99% | Test C disease control rating [4]: 41% | Test G disease control rating [5]: 0% | Test F disease control rating [6]: 99%

Cn1ncc(OS(C)(=O)=O)c(C(=O)Nc2ccccc2-c2cc(F)c(F)c(F)c2)c1=O [Compound 103]
Test D disease control rating [1]: 0% | Test E disease control rating [2]: 96% | Test A disease control rating [3]: 84% | Test C disease control rating [4]: 0% | Test G disease control rating [5]: 73% | Test F disease control rating [6]: 90%

Cn1ncc(OS(C)(=O)=O)c(C(=O)Nc2ccccc2F)c1=O [Compound 104]
Test D disease control rating [1]: 0% | Test E disease control rating [2]: 94% | Test A disease control rating [3]: 87% | Test C disease control rating [4]: 0% | Test G disease control rating [5]: 65% | Test F disease control rating [6]: 89%

Cc1cccc(NC(=O)c2c(OS(C)(=O)=O)cnn(C)c2=O)c1 [Compound 105]
Test D disease control rating [1]: 33% | Test E disease control rating [2]: 86% | Test A disease control rating [3]: 86% | Test C disease control rating [4]: 0% | Test G disease control rating [5]: 0% | Test F disease control rating [6]: 86%

Cn1ncc(OS(C)(=O)=O)c(C(=O)Nc2ccc(Oc3ccccc3)cc2)c1=O [Compound 106]
Test D disease control rating [1]: 85% | Test E disease control rating [2]: 83% | Test A disease control rating [3]: 98% | Test C disease control rating [4]: 0% | Test G disease control rating [5]: 81% | Test F disease control rating [6]: 86%

COc1cccc(NC(=O)c2c(OS(C)(=O)=O)cnn(C)c2=O)c1 [Compound 108]
Test D disease control rating [1]: 0% | Test E disease control rating [2]: 0% | Test A disease control rating [3]: 0% | Test C disease control rating [4]: 0% | Test G disease control rating [5]: 0% | Test F disease control rating [6]: 68%

Cc1ccc(S(=O)(=O)Oc2cnn(C)c(=O)c2C(=O)Nc2ccc(OC(F)(F)F)cc2)cc1 [Compound 112]
Test D disease control rating [1]: 46% | Test E disease control rating [2]: 43% | Test A disease control rating [3]: 25% | Test C disease control rating [4]: 0% | Test G disease control rating [5]: 0% | Test F disease control rating [6]: 95%

Cn1ncc(O)c(C(=O)Nc2c(Cl)cc(Cl)cc2Cl)c1=O [Compound 118]
Test D disease control rating [1]: 100% | Test B disease control rating [7]: 71% | Test C disease control rating [4]: 0% | Test G disease control rating [5]: 97% | Test F disease control rating [6]: 86%

Cc1cc(OC(F)(F)F)ccc1NC(=O)c1c(O)cnn(C)c1=O [Compound 124]
Test D disease control rating [1]: 99% | Test B disease control rating [7]: 99% | Test C disease control rating [4]: 0% | Test G disease control rating [5]: 99% | Test F disease control rating [6]: 99%

Cn1ncc(O)c(C(=O)Nc2ccccc2OC(F)(F)F)c1=O [Compound 126]
Test B disease control rating [7]: 95% | Test E disease control rating [2]: 82% | Test C disease control rating [4]: 0% | Test G disease control rating [5]: 93% | Test F disease control rating [6]: 89%

CCCC(=O)Oc1cnn(C)c(=O)c1C(=O)N(C(=O)CCC)c1ccc(OC(F)(F)F)cc1 [Compound 139]
Test D disease control rating [1]: 0% | Test B disease control rating [7]: 100% | Test C disease control rating [4]: 0% | Test G disease control rating [5]: 100% | Test F disease control rating [6]: 100%

Cn1ncc(O)c(C(=O)Nc2ccc(F)cc2C(F)(F)F)c1=O [Compound 145]
Test B disease control rating [7]: 100% | Test E disease control rating [2]: 99% | Test C disease control rating [4]: 0% | Test G disease control rating [5]: 99% | Test F disease control rating [6]: 99%

Cn1ncc(Cl)c(C(=O)Nc2ccc(Br)cc2)c1=O [Compound 149]
Test D disease control rating [1]: 68% | Test E disease control rating [2]: 0% | Test A disease control rating [3]: 92% | Test C disease control rating [4]: 0% | Test G disease control rating [5]: 0% | Test F disease control rating [6]: 99%
